The values below are quoted from earlier work in patent publication US20040191926A1 (priority 2001, published 2004).

For data set [1], the target named is T1, PTP1B (Homo sapiens, UniProt P18031).
T1 sequence (P18031 1-435): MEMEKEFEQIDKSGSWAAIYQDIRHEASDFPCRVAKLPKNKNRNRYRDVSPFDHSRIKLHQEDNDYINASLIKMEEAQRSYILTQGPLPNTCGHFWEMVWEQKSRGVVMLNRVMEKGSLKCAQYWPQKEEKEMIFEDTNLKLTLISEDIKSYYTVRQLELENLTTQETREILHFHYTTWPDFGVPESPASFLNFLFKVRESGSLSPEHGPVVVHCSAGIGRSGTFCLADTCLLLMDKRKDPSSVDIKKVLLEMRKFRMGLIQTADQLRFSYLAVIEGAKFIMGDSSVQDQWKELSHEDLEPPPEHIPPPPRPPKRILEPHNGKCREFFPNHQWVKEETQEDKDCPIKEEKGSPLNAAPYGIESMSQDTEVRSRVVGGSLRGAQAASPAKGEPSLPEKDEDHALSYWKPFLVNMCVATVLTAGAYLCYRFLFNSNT
The conditions noted are these: as PTP1B substrate (ref. 31); cited from earlier work.

Another data set addresses T2, PTP1B/C215S (Homo sapiens, UniProt P18031, C215S).
T2 sequence (P18031 1-435 C215S): T1 sequence (P18031 1-435) with C215S
The note with it: isothermal titration calorimetry, pH 7.0 and 25° C.; cited from earlier work. In general terms: In ITC the heat of successive injections is recorded.

For data set [2], the target named is T1, PTP1B. The note with it: cited from earlier work.
For data set [3], the target named is T1, PTP1B. The conditions noted are these: isothermal titration calorimetry, ionic strength of 0.15 M (ref. 33); cited from earlier work.

Where a chain is given by its changes, count along the chain named. Like-named read-outs stand apart in the source and are kept apart here. Where no end group is shown, it is not given here. [ ]: non-standard residue; d: D form. F2Pmp = N[C@@H](Cc1ccc(C(F)(F)P(=O)(O)O)cc1)C(=O)O

The term Km denotes the substrate concentration at which the rate is half of its maximum. The kcat is the number of substrate molecules converted per active site and unit of time at saturation. Regarding `O=P(O)(O)Oc1ccc(Cc2ccc(OP(=O)(O)O)cc2)cc1`, on PTP1B [1], the Km was 16 µM and the kcat is 6.9 s⁻¹.
As usually defined, the Kd is the equilibrium constant for the complex coming apart. For “Ac-DADEpYL-NH2 [pTyr-containing hexapeptide PTP1B substrate]”, at PTP1B/C215S, the Kd was 800 ± 100 nM.
A word on the Ki: it is the equilibrium dissociation constant of an inhibitor or competing ligand from its target. A word on the IC50: it is the point on the concentration scale where inhibition reaches its midpoint. Regarding DADE[F2Pmp]L-NH2, the Ki at PTP1B [2] was 200 nM; on PTP1B [2] (enzyme inhibition, ionic strength of 0.15 M (ref. 33)), 250 nM; at PTP1B [2] (low ionic strength: pH 7.3 in 50 mM Hepes, 5 mM DTT and 10 mg/mL BSA buffer (ref. 37)), 26 nM. Moreover, at PTP1B [2], the “potency relative to the same peptide containing phosphonomethyl phenylalanine (Pmp)” value is on record as “over 1000 times”. For the same molecule, the IC50 on PTP1B [2] (low ionic strength: pH 6.3, 50 mM Bis-Tris, 2 mM EDTA, 5 mM DTT buffer (ref. 38)) was 30 nM. For the same molecule, the Kd at PTP1B [3] was 240 nM.
